pEC50, pIC50: −log10 of the molar value. Where two headings read alike, the source gives them in different places.
Legend:
SARS-CoV-2-NLuc = experiment: microbe, parasite or virus in culture; type: cell-based, SARS Coronavirus 2
[1] = target: recombinant SARS-CoV-2 Main protease (Mpro) (Severe acute respiratory syndrome coronavirus 2 (2019-nCoV) (SARS-CoV-2), UniProt P0DTD1); experiment: Cov Mpro Biochemical IC50 Assay
[2] = Severe acute respiratory syndrome coronavirus, 48 h, read-out: MPro EC50
[3] = recombinant SARS-CoV-2 Mpro, fluorogenic peptide substrate, read-out: MPro IC50
[4] = recombinant SARS-CoV-2 Mpro 7.5 nM, fluorogenic peptide substrate 40 μM, read-out: MPro IC50
[5] = Severe acute respiratory syndrome coronavirus, 48 h; read-out: MPro EC50

Compound	pEC50 (SARS-CoV-2-NLuc; [2])	pIC50 [1, 3]	pIC50 [1, 4]	other results
O=c1[nH]c2cc(-c3ccccc3Cl)sc2c(=O)n1-c1cncc2ccc(N3CC4C(C3)C4(F)F)cc12 (stereo not shown) [Example 231]	7.43	7.66		
COc1cc(F)c(Cl)c(-c2ccc3c(=O)n(-c4cncc5ccccc45)c(=O)[nH]c3c2)c1 [Example 212]	6.12	6.08		
COc1cc(-c2cc3c(s2)c(=O)n(-c2cncc4cnn(C)c24)c(=O)n3CCC#N)c(C#N)cn1 [Example 776]	6.24		6.63	
Cc1c2c(-n3c(=O)c4sc(-c5cc(F)c(F)cc5Cl)cc4n(CCC#N)c3=O)cncc2nn1C [Example 798]			7.41	pEC50 (SARS-CoV-2-NLuc; [5]): 6.86
COc1cc(-c2cc3[nH]c(=O)n(-c4cncc5ccccc45)c(=O)c3s2)c(Cl)cn1 [Example 365]	6.46	7.00		
Cn1ncc2cncc(-n3c(=O)c4sc(-c5cc(Cl)ccc5C#N)cc4n(CCC#N)c3=O)c21 [Example 774]	7.71		8.20	
Cc1ccc2cncc(-n3c(=O)c4sc(-c5ccccc5Cl)cc4n(CCC#N)c3=O)c2n1 [Example 907]	8.16		8.24	
Cc1cccc2cncc(-n3c(=O)[nH]c4cc(-c5ccccc5Cl)sc4c3=O)c12 [Example 558, 6-(2-chlorophenyl)-3-(5-methylisoquinolin-4-yl)thieno[3,2-d]pyrimidine-2,4(1H,3H)-dione]	7.76		8.47	
COc1cc(-c2cc3c(s2)c(=O)n(-c2cncc4ncn(C)c24)c(=O)n3CCC#N)c(C#N)cc1F [Example 845]	6.41		8.00	
O=c1[nH]c2cc(-c3ccccc3Cl)ccc2c(=O)n1-c1cncc(C2CC2)c1 [Example 127]				pEC50 (SARS-CoV-2-NLuc; [5]): 6.19; pIC50 ([1]; MPro IC50, recombinant SARS-CoV-2 Mpro, fluorogenic peptide substrate): 6.11
CC1(N2CCN(c3ccc4cncc(-n5c(=O)[nH]c6cc(-c7ccccc7Cl)sc6c5=O)c4c3)CC2)COC1 [Example 391]	7.99	8.20		
C#Cc1cc(F)c(OC)cc1-c1cc2c(s1)c(=O)n(-c1cncc3nnn(C4CC4)c13)c(=O)n2CCC#N [Example 882]	7.16		7.58	
Cn1cnc2cncc(-n3c(=O)c4sc(-c5ccccc5C#N)cc4n(CCC#N)c3=O)c21 [Example 844]			7.18	pEC50 (SARS-CoV-2-NLuc; [5]): < 6.00
O=c1[nH]c2cc(-c3ccccc3OCc3ccccc3Cl)ccc2c(=O)n1-c1cncc2ccccc12 [Example 55]	5.74	4.89		
N#CC1(Cn2c(=O)n(-c3cncc4cccnc34)c(=O)c3sc(-c4ccccc4Cl)cc32)CC1 [Example 711]	8.77		8.36	
COc1cc(-c2cc3c(s2)c(=O)n(-c2cncc4nnn(C)c24)c(=O)n3CCC#N)c(C#N)cc1F [Example 878]	7.05		7.80	
Cn1ncc2cncc(-n3c(=O)c4sc(-c5c(Cl)cccc5-c5cncc(C#N)c5)cc4n(CCC#N)c3=O)c21 [Example 934]	7.31		8.08	
COc1cc(-c2cc3c(s2)c(=O)n(-c2cncc4nnn(C(C)C)c24)c(=O)n3CCC#N)c(Cl)cc1F [Example 991]	7.30		7.80	
COCc1ccc(Cl)c(-c2ccc3c(=O)n(-c4cncc5ccccc45)c(=O)[nH]c3c2)c1 [Example 303]	6.44	6.57		
O=c1[nH]c2cc(-c3c(Cl)cccc3-c3cc4n(n3)CCC4)ccc2c(=O)n1-c1cncc2ccccc12 [Example 246]	7.73	7.68		
COCCn1cc2cncc(-n3c(=O)[nH]c4cc(-c5cc(OC)c(F)cc5Cl)sc4c3=O)c2n1 [Example 735]	7.15		8.18	
N#Cc1cccc(-c2cccc(Cl)c2-c2ccc3c(=O)n(-c4cncc5ccccc45)c(=O)[nH]c3c2)n1 [Example 276]	6.66	6.64		
O=c1[nH]c2cc(-c3cncc4ccccc34)ccc2c(=O)n1-c1cncc2ccccc12 [Example 42]		5.49		pEC50 (SARS-CoV-2-NLuc; [5]): 5.30
COc1ccc(C)c(-c2cc3[nH]c(=O)n(-c4cncc5ccccc45)c(=O)c3s2)c1 [Example 349]	7.52	8.14		

Compound	pEC50 (SARS-CoV-2-NLuc; [2])	pIC50 [1, 3]	pIC50 [1, 4]	other results
Cc1nn(C(C)(C)C)cc1-c1cccc(Cl)c1-c1ccc2c(=O)n(-c3cncc4ccccc34)c(=O)[nH]c2c1 [Example 274]	7.02	7.08		
COc1ccc(Cl)c(-c2cc3[nH]c(=O)n(-c4cncc5ccc(N6CCO[C@H](C(F)(F)F)C6)cc45)c(=O)c3s2)c1 [Example 415]			7.93	pEC50 (SARS-CoV-2-NLuc; [5]): 7.58
O=c1[nH]c2cc(-c3ccccc3Cl)sc2c(=O)n1-c1cncc2cc(Cl)ccc12 [Example 590]	6.52		6.71	
COc1cc(-c2cc3[nH]c(=O)n(-c4cncc5cccc(F)c45)c(=O)c3cc2OC)c(C#N)cc1F [Example 682]	7.48		7.69	
O=c1[nH]c2cc(-c3ccccc3Cl)ccc2c(=O)n1-c1cnccc1N1CCNCC1 [Example 116, 7-(2-chlorophenyl)-3-(4-(piperazin-1-yl)pyridin-3-yl)quinazoline-2,4(1H,3H)-dione]		6.10		pEC50 (SARS-CoV-2-NLuc; [5]): 5.50
COc1ccc(OC)c(-c2ccc3c(=O)n(-c4cncc5ccccc45)c(=O)[nH]c3c2)c1 [Example 210]	5.53	5.55		
Cc1ccc2nn(C)cc2c1-c1cc2[nH]c(=O)n(-c3cncc4cnn(C)c34)c(=O)c2s1 [Example 1015]	6.22		7.29	
COc1cc(-c2cc3c(s2)c(=O)n(-c2cncc4cccnc24)c(=O)n3CCC#N)c(Cl)cc1F [Example 904, 3-(6-(2-chloro-4-fluoro-5-methoxyphenyl)-3-(1,6-naphthyridin-8-yl)-2,4-dioxo-3,4-dihydrothieno[3,2-d]pyrimidin-1(2H)-yl)propanenitrile]	8.87		8.37	
O=c1[nH]c2cc(-c3ccccc3)cnc2c(=O)n1-c1cncc2ccccc12 [Example 29]		6.32		pEC50 (SARS-CoV-2-NLuc; [5]): 5.35
COc1cnc(Cl)c(-c2cc3[nH]c(=O)n(-c4cncc5cccc(F)c45)c(=O)c3s2)c1 [Example 760]	7.03		7.81	
CCn1cc(-c2cccc(Cl)c2-c2ccc3c(=O)n(-c4cncc5ccccc45)c(=O)[nH]c3c2)c(C)n1 [Example 275]	7.75	7.63		
CC(C)Cn1cc(-c2cccc(Cl)c2-c2ccc3c(=O)n(-c4cncc5ccccc45)c(=O)[nH]c3c2)c(C(F)(F)F)n1 [Example 201]	7.23	6.96		
O=c1[nH]c2cc(-c3ccccc3Cl)ccc2c(=O)n1-c1cncc2ccccc12 (single isomer, unassigned) [Example 104, 7-(2-chlorophenyl)-3-(isoquinolin-4-yl)quinazoline-2,4(1H,3H)-dione]		5.17		pEC50 (SARS-CoV-2-NLuc; read-out: MPro EC50): 5.41
O=c1[nH]c2cc(-c3ccccc3)c(F)cc2c(=O)n1-c1cncc2ccccc12 [Example 38]		< 4.00		pEC50 (SARS-CoV-2-NLuc; [5]): 5.31
Cc1c(F)cncc1-n1c(=O)c2sc(-c3cc(F)c(F)cc3Cl)cc2n(CCC#N)c1=O [Example 850]			7.57	pEC50 (SARS-CoV-2-NLuc; [5]): 7.27
COc1cc(-c2cc3c(s2)c(=O)n(-c2cccnn2)c(=O)n3CCC#N)c(Cl)cc1F [Example 989]	7.71		8.14	
COc1cc(-c2cc3c(s2)c(=O)n(-c2cncc4nc(C5CC5)n(C)c24)c(=O)n3CCC#N)c(Cl)cc1F [Example 992]	6.95		7.74	
Cc1nc2cncc(-n3c(=O)c4sc(-c5ccc(F)cc5Cl)cc4n(CCC#N)c3=O)c2n1C [Example 853, 3-(6-(2-chloro-4-fluorophenyl)-3-(1,2-dimethyl-1H-imidazo[4,5-c]pyridin-7-yl)-2,4-dioxo-3,4-dihydrothieno[3,2-d]pyrimidin-1(2H)-yl)propanenitrile]	6.99		7.57	
Cc1cc(-n2c(=O)c3sc(-c4ccccc4Cl)cc3n(CCC#N)c2=O)cnc1F [Example 825]	7.11		7.47	
COc1cc(-c2cc3[nH]c(=O)n(-c4cncc5cccc(Cl)c45)c(=O)c3s2)c(Cl)cc1F [Example 1078]			8.05	pEC50 (SARS-CoV-2-NLuc; [5]): 8.02
N#Cc1cccc(Cl)c1-c1ccc2c(=O)n(-c3cncc4ccccc34)c(=O)[nH]c2c1 [Example 98]	6.70	6.67		
COc1cc(-c2cc3c(s2)c(=O)n(-c2cncc4ccccc24)c(=O)n3CC(C)(C)C#N)c(Cl)cc1F [Example 698]	7.85		8.15	
O=C1Nc2ccc(-c3cccc(Cl)c3-c3ccc4c(=O)n(-c5cncc6ccccc56)c(=O)[nH]c4c3)cc2C1(F)F [Example 173]	6.19	6.42		
